Here are results for ten compounds from ChEMBL document CHEMBL1201862, “PubChem BioAssay data set” (2004).

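Tested at 5 concentrations; 48 h exposure; 96-well plates; endpoints linearly interpolated, else capped at highest concentration. GI50: concentration for 50% inhibition of growth.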 Calls of active or inactive are those of the source. Rule as the data show it: active = GI50 up to about 1.1 µM and inactive = higher.

Some test systems named below: DU-145; CCRF-CEM; Hs-578T; UACC-62; A498; T47D; SF-268; OVCAR-3; K562; SNB-75; SF-539; PC-3; OVCAR-5; 786-0; HT-29; IGROV-1; NCI-H460; MDA-MB-231; MCF7; HCT-116.
Common to all, as to test: growth of human tumour cells (NCI), 48 h

As to `Cc1c(C(=O)OCc2ccccc2)[n+]([O-])c2ccccc2[n+]1[O-]`, the GI50 in the test with DU-145 was 19.9 µM (inactive); in the test on CCRF-CEM it was < 0.01 µM (active); in the test with Hs-578T, 30.1 µM (inactive); with UACC-62 it was 25.6 µM (inactive); with A498, 36.1 µM (inactive); in the test on T47D, 13.4 µM (inactive). The GI50 is 34.7 µM (inactive) in the test on SF-268; 30.3 µM (inactive) in the test on OVCAR-3; 37.6 µM (inactive) in the test with K562; 15.6 µM (inactive) in the test with SNB-75; 42.1 µM (inactive) with SF-539; 23.1 µM (inactive) in the test on PC-3. Moreover, the GI50 in the test with OVCAR-5 was 60.1 µM (inactive); in the test with 786-0, 44.1 µM (inactive); in the test on HT-29 it was 60.8 µM (inactive); with IGROV-1, 13 µM (inactive); in the test with NCI-H460 it was 25.4 µM (inactive); in the test with MDA-MB-231 it was 20.8 µM (inactive). Besides, the results for the GI50 in the test with MCF7 and with HCT-116 were 19.5 µM (inactive) and 25.1 µM (inactive), respectively.

Regarding `O=C1C(Cl)=C(N2CCC[C@@H]2CO)C(=O)c2c(O)ccc(O)c21`, the GI50 with DU-145 was 1.84 µM (inactive); with CCRF-CEM it was 0.244 µM (active); in the test with Hs-578T, 2.06 µM (inactive); in the test on UACC-62, 1.36 µM (inactive); with A498, 2.9 µM (inactive); in the test on T47D it was 1.78 µM (inactive). For the same compound, the GI50 with SF-268 is 1.29 µM (inactive); in the test on OVCAR-3, 1.67 µM (inactive); in the test on K562, 0.347 µM (active); in the test on SNB-75 it was 1.69 µM (inactive); in the test with SF-539, 1.92 µM (inactive); in the test with PC-3, 1.91 µM (inactive). The GI50 is 1.69 µM (inactive) in the test on OVCAR-5; 1.76 µM (inactive) with 786-0; 2.15 µM (inactive) in the test with HT-29; 1.79 µM (inactive) with IGROV-1; 1.73 µM (inactive) with NCI-H460; 2.02 µM (inactive) with MDA-MB-231. Moreover, the GI50 with MCF7 was 1.16 µM (inactive); in the test on HCT-116 it was 1.44 µM (inactive).

`CCc1cc2c(c3c1CCCC3=O)CC1(C2)Cc2cc(CC)c3c(c2C1)C(=O)CCC3`: the GI50 in the test with DU-145 was > 100 µM (inactive); in the test on CCRF-CEM, 26.7 µM (inactive); in the test with Hs-578T, > 100 µM (inactive); in the test on A498, > 100 µM (inactive); with T47D, > 100 µM (inactive); in the test on SF-268 it was > 100 µM (inactive). Further, the GI50 in the test on OVCAR-3 was 86.3 µM (inactive); with K562, 65.9 µM (inactive); with SNB-75, 30.5 µM (inactive); in the test on SF-539 it was > 100 µM (inactive); in the test on PC-3 it was 46.5 µM (inactive); with OVCAR-5, > 100 µM (inactive). For the same compound, the GI50 with 786-0 is > 100 µM (inactive); with HT-29, 76.2 µM (inactive); with IGROV-1, > 100 µM (inactive); with NCI-H460, 93.8 µM (inactive); in the test with MDA-MB-231, 36.5 µM (inactive); in the test on MCF7 it was > 100 µM (inactive). The GI50 in the test on HCT-116 is 61.1 µM (inactive).

For the compound `COc1nc(C#CCCCC#N)nc(OC)n1`, the GI50 is 8.93 µM (inactive) with DU-145; 40.8 µM (inactive) with Hs-578T; 9.62 µM (inactive) in the test on UACC-62; 20.7 µM (inactive) in the test on A498; 35.4 µM (inactive) in the test on T47D; 27.3 µM (inactive) with SF-268. Further, the GI50 was 13.3 µM (inactive) in the test with OVCAR-3; 17.9 µM (inactive) in the test on K562; 19.5 µM (inactive) in the test on SNB-75; 20.5 µM (inactive) in the test on SF-539; 13.2 µM (inactive) with PC-3; 13.5 µM (inactive) in the test with OVCAR-5. The GI50 in the test with 786-0 is 11.1 µM (inactive); with HT-29, 24.3 µM (inactive); in the test with IGROV-1, 17.3 µM (inactive); in the test on NCI-H460, 26.3 µM (inactive); in the test with MDA-MB-231, 11.7 µM (inactive); in the test with MCF7 it was 5.27 µM (inactive). The GI50 in the test on HCT-116 is 8.79 µM (inactive).

On to `O=C(CCC(C(=O)OCc1ccccc1)C(=O)OCc1ccccc1)Nc1ccc(OCc2ccccc2)cc1`, for which the GI50 in the test on DU-145 is > 100 µM (inactive); with CCRF-CEM, 47.5 µM (inactive); in the test on Hs-578T, 52.7 µM (inactive); in the test with UACC-62, > 100 µM (inactive); with A498, 21 µM (inactive); in the test with T47D, 91.6 µM (inactive). Also, the GI50 was > 100 µM (inactive) with SF-268; > 100 µM (inactive) in the test on OVCAR-3; > 100 µM (inactive) with K562; > 100 µM (inactive) with SNB-75; > 100 µM (inactive) with SF-539; 17.6 µM (inactive) in the test with PC-3. Further, the GI50 was > 100 µM (inactive) with OVCAR-5; 16.2 µM (inactive) in the test on 786-0; > 100 µM (inactive) with HT-29; > 100 µM (inactive) in the test on IGROV-1; 59.4 µM (inactive) in the test on NCI-H460; 22.6 µM (inactive) with MDA-MB-231. Also, the GI50 in the test with MCF7 was 13.2 µM (inactive); in the test with HCT-116 it was 14.3 µM (inactive).

On to `O=C(O)[C@@H]1C[C@@H](O)CN1C(=O)OCc1ccccc1`, for which the GI50 in the test on DU-145, with CCRF-CEM, with Hs-578T, in the test with UACC-62, in the test on A498 and with T47D was > 100 µM (inactive) each time. The GI50 was > 100 µM (inactive) in the test with SF-268; > 100 µM (inactive) in the test on OVCAR-3; > 100 µM (inactive) in the test with K562; 1.16 µM (inactive) in the test with SNB-75; > 100 µM (inactive) in the test with SF-539; > 100 µM (inactive) in the test on PC-3. In addition, the GI50 with OVCAR-5, with 786-0, in the test on HT-29, in the test on IGROV-1, in the test on NCI-H460 and in the test with MDA-MB-231 was > 100 µM (inactive) in each case. The GI50 in the test with MCF7 and in the test on HCT-116 was > 100 µM (inactive) each time.

Take `O=C1/C(=C/c2ccccc2)CCCC1CN1CCCCC1` (configuration not stated): the GI50 with DU-145 was 14.3 µM (inactive); with Hs-578T it was 2.94 µM (inactive); with UACC-62 it was 6.53 µM (inactive); with A498 it was 16.7 µM (inactive); in the test on T47D it was 1.77 µM (inactive); in the test on SF-268, 1.78 µM (inactive). The GI50 was 1.71 µM (inactive) in the test on OVCAR-3; 7.91 µM (inactive) in the test on SNB-75; 3.12 µM (inactive) with SF-539; 11.4 µM (inactive) in the test on PC-3; 18.6 µM (inactive) with OVCAR-5; 1.87 µM (inactive) in the test with 786-0. In addition, the GI50 in the test with HT-29 is 1.58 µM (inactive); in the test on IGROV-1, 2.97 µM (inactive); in the test on NCI-H460, 6.58 µM (inactive); with MDA-MB-231, 2 µM (inactive); in the test with MCF7, 0.428 µM (active); in the test on HCT-116, 1.68 µM (inactive).

Take `C[N+](C)(N)Cc1nc(-c2ccc(Cl)cc2)no1`: the GI50 is > 100 µM (inactive) in the test on DU-145; 94.8 µM (inactive) in the test on CCRF-CEM; > 100 µM (inactive) in the test with Hs-578T; > 100 µM (inactive) with UACC-62; 70 µM (inactive) in the test with A498; 22.9 µM (inactive) in the test with T47D. The GI50 in the test on OVCAR-3 was > 100 µM (inactive); in the test on K562, 44.2 µM (inactive); in the test with SNB-75, > 100 µM (inactive); in the test with SF-539, > 100 µM (inactive); in the test with PC-3 it was > 100 µM (inactive); in the test with OVCAR-5, > 100 µM (inactive). The GI50 in the test on 786-0, with HT-29, in the test with IGROV-1, in the test with NCI-H460, in the test on MDA-MB-231 and in the test on MCF7 was > 100 µM (inactive) each time. Also, the GI50 with HCT-116 was > 100 µM (inactive).

As to `C(#C[C@@]12CCC[C@@H]1NCO2)c1ccc2c(c1)OCO2`, the GI50 in the test with DU-145 was > 100 µM (inactive); with CCRF-CEM, 42.6 µM (inactive); in the test on Hs-578T, 37.8 µM (inactive); with UACC-62, 78.3 µM (inactive); in the test on A498, > 100 µM (inactive); with T47D, 58.2 µM (inactive). For the same compound, the GI50 is 65.2 µM (inactive) in the test on SF-268; 65.6 µM (inactive) in the test with OVCAR-3; 21.9 µM (inactive) in the test on K562; 45.1 µM (inactive) in the test with SNB-75; 29.3 µM (inactive) with SF-539; 55.8 µM (inactive) in the test with PC-3. Besides, the GI50 in the test on OVCAR-5 was > 100 µM (inactive); in the test with 786-0, 43.7 µM (inactive); in the test with HT-29 it was 32.2 µM (inactive); in the test with IGROV-1, 45.9 µM (inactive); in the test with NCI-H460, 50.9 µM (inactive); in the test on MDA-MB-231, > 100 µM (inactive). For the same compound, in the test with MCF7, the GI50 is 57.9 µM (inactive).

`O=c1ss/c(=N\c2ccccc2)n1-c1ccccc1`: the GI50 with DU-145 is 16.9 µM (inactive); with CCRF-CEM, 4.14 µM (inactive); with Hs-578T it was 32.4 µM (inactive); in the test with UACC-62 it was 31.1 µM (inactive); in the test with A498, > 100 µM (inactive); in the test on T47D, 16.3 µM (inactive). For the same compound, the GI50 with SF-268 was 18.5 µM (inactive); in the test with OVCAR-3, 22.3 µM (inactive); in the test on K562 it was 21.8 µM (inactive); with SNB-75, 21.9 µM (inactive); in the test on SF-539 it was 35.9 µM (inactive); with PC-3, 19.5 µM (inactive). In addition, the GI50 in the test with OVCAR-5 is 40.2 µM (inactive); in the test with 786-0 it was 18.3 µM (inactive); with HT-29, 38.5 µM (inactive); with NCI-H460 it was 81.7 µM (inactive); in the test on MDA-MB-231, 25.9 µM (inactive); with MCF7, 19.5 µM (inactive).
